Results reported in patent US20190216093A1, “COMPOSITIONS AND RELATED METHODS FOR AGRICULTURE” (priority 2017, published 2019).
“Also recorded” adds a separate entry of the source.

Columns and labels:
[1] = tested on: ApGLNT1 glutamine transporter; conditions: Price et al., 2014 PNAS; cited from earlier work
endosymbiotic Buchnera = assay: Buchnera/aphid DNA copy numbers by qPCR; assay type: in vivo, Buchnera aphidicola
Description: (§1) After 7 days of treatment, DNA was extracted from multiple aphids from each treatment group. Briefly, the aphid body surface was sterilized by dipping the aphid into a 6% bleach solution for approximately 5 seconds. Aphids were then rinsed in sterile water and DNA was extracted from each individual aphid using a DNA extraction kit (Qiagen, DNeasy kit) according to manufacturer's instructions. DNA concentration was measured using a nanodrop nucleic acid quantification, and Buchnera and aphid DNA copy numbers were measured by qPCR. […]
(§2) After 8 days of treatment, DNA was extracted from multiple aphids from each treatment group. Briefly, the aphid body surface was sterilized by dipping the aphid into a 6% bleach solution for approximately 5 seconds. Aphids were then rinsed in sterile water and DNA was extracted from each individual aphid using a DNA extraction kit (Qiagen, DNeasy kit) according to manufacturer's instructions. DNA concentration was measured using a nanodrop nucleic acid quantification, and Buchnera and aphid DNA copy numbers were measured by qPCR.
as §2, with “from the remaining” for “from multiple”, “aphids in” for “aphids from”
(§3) After 7 of treatment, DNA was extracted from the remaining aphids in each treatment group. Briefly, the aphid body surface was sterilized by dipping the aphid into a 6% bleach solution for approximately 5 seconds. Aphids were then rinsed in sterile water and DNA was extracted from each individual aphid using a DNA extraction kit (Qiagen, DNeasy kit) according to manufacturer's instructions. DNA concentration was measured using a nanodrop nucleic acid quantification, and Buchnera and aphid DNA copy numbers were measured by qPCR.
as §3, with “Briefly,” for “After 7 of treatment, DNA was extracted from the remaining aphids in each treatment group. Briefly,”
as §1, with “3” for “7”, “the remaining living” for “multiple”

[2] = tested on: Acyrthosiphon pisum aphids; assay: Aphid survival monitoring; assay type: in vivo
[3] = tested on: Acyrthosiphon pisum aphids; assay: Aphid developmental stage monitoring; assay type: in vivo; conditions: for aphids that did not mature further than the 4th instar stage: eNASCO, 11 days post-treatment
Plasmodium falciparium = conditions: previous study (Saliba et al., 2005); cited from earlier work
[4] = tested on: Acyrthosiphon pisum aphids; assay: Aphid body area (size) measurement from images; assay type: in vivo; conditions: eNASCO; 10 or 100 uM pantothenol in artificial diet; by 3 days post-treatment
Description: For adult aphids, new nymphs were counted daily and then discarded. At the end of the experiments, fecundity was determined as the mean number of offspring produced daily once the aphid reached adulthood. Pictures of aphids were taken throughout the experiment to evaluate size differences between treatment groups.
Each treatment group received approximately the same number of individuals from each of the collection plant. For each treatment, 20 aphids were placed onto each leaf. Aphids were monitored daily for survival and dead aphids were removed when they were discovered. In addition, the developmental stage (1st, 2nd, 3rd, 4th, 5th instar, and 5R, representing a reproducing 5th instar) was determined daily throughout the experiment. […]
(§4) For adult aphids, new nymphs were counted daily and then discarded. At the end of the experiments, fecundity was measured in two ways: 1) the mean day at which the first offspring for the treatment group was determined and 2) the mean number of offspring produced daily once the aphid reached adulthood. […]
Aphids LSR-1 (which harbor only Buchnera), Acyrthosiphon pisum were grown on fava bean plants (Vroma vicia faba from Johnny's Selected Seeds) in a climate-controlled incubator (16 h light/8 h dark photoperiod; 60±5% RH; 25±2° C.). […] Aphids were monitored daily for survival and dead aphids were removed from the deep petri dish when they were discovered. […]

[5] = tested on: Acyrthosiphon pisum aphids; assay: Aphid fecundity (offspring production); assay type: in vivo; conditions: for aphid reproduction: 10 or 100 uM pantothenol
Description: In addition, the developmental stage (1st, 2nd, 3rd, 4th, 5th, and 5R (5th that has reproduced) instar) was determined daily throughout the experiment. Once an aphid reached the 4th instar stage, they were given their own artificial feeding system in a deep petri dish so that fecundity could be monitored once they reached adulthood.
as §4, with “adulthood. Pictures of aphids were taken throughout the experiment to evaluate size differences between treatment groups.” for “adulthood.”

[6] = tested on: gram-negative and gram-positive organisms; conditions: cited from earlier work
[7] = tested on: gram-negative and gram-positive bacteria as well as fungi; conditions: cited from earlier work
[8] = LSR-1, 100 μg/ml rifampicin in artificial diet without essential amino acids, through plants

## N=C(N)NCCC[C@H](N)C(=O)O [arginine]
[1]
  glutamine uptake: inhibits glutamine uptake by the glutamine transporter

## Cc1cc2c(C(C)C)c(O)c(O)c(C=O)c2c(O)c1-c1c(C)cc2c(C(C)C)c(O)c(O)c(C=O)c2c1O [gossypol, gossypol acetic acid]
Endosymbiotic Buchnera; 0.25 and 0.5% of gossypol, 5 or 13 days
  Buchnera/aphid DNA copies, fold less than control: ~4 -fold less
[2]; 0.5% gossypol
  all aphids succumbed to treatment by: ≤ 4 days
  aphids began dying after: 2 days

## CC(=O)CCC(=O)O [levulinic acid]
Endosymbiotic Buchnera; 0.03 or 0.3% levulinic acid in water, 7 days
  Buchnera/aphid DNA copies, fold less than control: ~6 -fold less
Endosymbiotic Buchnera; 0.03 or 0.3% levulinic acid, seven and eleven days post-treatment
  Buchnera/aphid ratio: reduced endosymbiotic Buchnera
[2]; eNASCO, 0.03% levulinic acid, difference did not reach statistical significance
  aphid mortality: higher mortality compared to control treated aphids
[2]; eNASCO, 0.03 or 0.3% levulinic acid
  aphid survival: dose-dependent decrease in survival; also recorded: decrease in insect survival
[2]; eNASCO, 0.3% levulinic acid, 11-day experiment
  aphid survival: survival was significantly less
[3]; eNASCO 1st and 2nd instar, 0.03 or 0.3% levulinic acid, leaf injection and through plant
  aphid developmental stage: Development was delayed; also recorded: resulted in delayed aphid development
[3]; 0.03% levulinic acid
  aphids that did not mature further than the 4th instar stage: ~23%
[3]; 0.3% levulinic acid
  aphids that did not mature further than the 4th instar stage: ~63%

## CC(C)(CO)[C@@H](O)C(=O)NCCCO [pantothenol]
Endosymbiotic Buchnera; 10 or 100 uM pantothenol, 8 days
  Buchnera/aphid DNA copies: does not affect Buchnera/aphid DNA copy number directly
Endosymbiotic Buchnera; 10 or 100 uM pantothenol, 8 days, listed as Pantothenol
  Buchnera/aphid DNA copies: did not affect endosymbiotic Buchnera
Plasmodium falciparium
  growth of Plasmodium falciparium: inhibits the growth of Plasmodium falciparium
[4]
  aphid area: drastic effect of pantothenol treatment; also recorded: smaller in area than untreated controls
[2]; eNASCO, 10 or 100 uM pantothenol in artificial diet, through plants
  aphid survival: increased aphid mortality; also recorded: negatively affected aphid fitness
[2]; eNASCO, leaf coating, 10 uM pantothenol
  aphid survival rate: lower survival rates than aphids placed on coated leaves with the control solution
[2]; eNASCO, leaf coating, 10 uM pantothenol, listed as Pantothenol
  aphid survival rate: resulted in aphid death
[5]; 10 uM pantothenol (control approximately 7)
  mean number of offspring per day produced by reproducing aphids: approximately 4 offspring/day
[5]; 100 uM pantothenol (control approximately 7)
  mean number of offspring per day produced by reproducing aphids: ~5 offspring/day
[5]
  aphid reproduction: loss of aphid reproduction
[5]; listed as Pantothenol
  aphid reproduction: resulted in loss of reproduction
[5]; all treatment groups (10 and 100 uM pantothenol)
  mean day aphids began reproducing: 7 days
[3]; eNASCO 1st and 2nd instar, 10 or 100 uM pantothenol in artificial diet without essential amino acids, through plants
  aphid developmental stage: Development was delayed
[3]; eNASCO 1st and 2nd instar, 10 or 100 uM pantothenol in artificial diet without essential amino acids, through plants, listed as Pantothenol
  aphid developmental stage: delayed aphid development
[3]; eNASCO 1st instar, leaf coating, 10 uM pantothenol in 0.025% Silwet L-77
  aphid developmental stage: did not affect aphid development

## CO[C@H]1/C=C/O[C@@]2(C)Oc3c(C)c(O)c4c(O)c(c(/C=N/N5CCN(C)CC5)c(O)c4c3C2=O)NC(=O)/C(C)=C\C=C\[C@H](C)[C@H](O)[C@@H](C)[C@@H](O)[C@@H](C)[C@H](OC(C)=O)[C@@H]1C [rifampicin, reference compound]
Endosymbiotic Buchnera; LSR-1, 100 μg/ml rifampicin through plants, 7 days of treatment
  Buchnera/aphid DNA copies, fold less than control: ~4 -fold less
[2]; [8]
  all aphids succumbed to treatment by: ≤ 9 days
  aphids began dying after: 1 days

## O=C/C=C/c1ccccc1 [trans-cinnemaldehyde]
Endosymbiotic Buchnera; 0.5 and 5% of trans-cinnemaldehyde, 3 days
  Buchnera/aphid DNA copies, fold less than control: ~870 -fold less
Endosymbiotic Buchnera; lowest concentration of trans-cinnemaldehyde (0.5%), 3 days
  Buchnera/aphid DNA copies: high ratios of Buchnera/aphid DNA copies
Endosymbiotic Buchnera; trans-cinnemaldehyde 0.05%, 0.5%, 5%, 3 days post-treatment
  Buchnera/aphid DNA (symbiont titer): reduced endosymbiotic Buchnera
[2]; 0.05%, 0.5%, and 5% trans-cinnemaldehyde, 3 days
  aphid survival rate: dose-dependent decrease in survival; also recorded: significantly lower
[6]
  antimicrobial activity: antimicrobial activity against both gram-negative and gram-positive organisms
[3]; 5% trans-cinnemaldehyde
  aphid developmental stage: remained at the 1st instar stage throughout the course of the experiment
[3]; LSR-1 1st and 2nd instar, trans-cinnemaldehyde 0.05%, 0.5%, 5% in water, leaf perfusion and through plants, 3 days
  aphid developmental stage: none of the aphids matured past the second instar stage
[3]; LSR-1 1st and 2nd instar, trans-cinnemaldehyde 0.05%, 0.5%, 5% in water, leaf perfusion and through plants, 3 days, listed as Trans-cinnemaldehyde
  aphid developmental stage: resulted in delayed aphid development

B1: NCR335: cationic NCR peptide (peptide)
chain: MQIGKNMVETPKLDYVIIFFFLYFFFRQMIILRLNTTFRPLNFKMLRFWGQNRNIMKHRGQKVHFSLILSDCKTNKDCPKLRRANVRCRKSYCVPI
[7]
  antimicrobial activities: effective against gram-negative and gram-positive bacteria as well as fungi
